Laboratory results taken from publication PMC9496563, “Functional Evaluation and Nephrotoxicity Assessment of Human Renal Proximal Tubule Cells on a Chip” (Biosensors, 2022).
Like-named read-outs stand apart in the source and are kept apart here. One block for each compound: values may come before it.

Tests used:
hRPTECs [1] = type: cell-based
Experimental: (§1) After the microdevice was assembled, it was exposed to ultraviolet light for 30 min. The porous membrane was coated with collagen type I hydrogel at 37 °C for 2 h. The hRPTECs or HK2 cells (2 × 10^5 cells/ cm^2) were seeded on the lower microfluidic channel and incubated upside down at 37 °C for 2 h, allowing the seeded hRPTECs or HK2 cells to attach to the porous membrane surface. Then, 100 μL of the culture medium was added to each chamber and the device was placed on the iBAC Rocker (MR100110, Daxiang biotech, Beijing, China) for dynamic culture.
(§2) The Live/Dead kit (Thermo Fisher, Waltham, MA, USA), LDH kit (Life Technologies, Paisley, UK) and CellTiter-Glo (Promega, Madison, WI, USA) were used to evaluate cell viability on the iBAC. These assays were performed on test compound-treated monolayers following the manufacturer’s instructions. The assay protocols are described briefly here. In the live/dead cell assay, the cells were incubated with the live/dead cell imaging reagents for 15–30 min at 37 °C and observed under a fluorescent microscope. The viable cells were stained green, while the dead ones were stained red. In the CellTiter-Glo luminescent cell viability assay, the cells were incubated with the CellTiter-Glo reagents for 30 min at room temperature and detected with a microplate reader. For the LDH assay, 50 μL of medium from each well of the treatment plates was transferred into fresh 96-well plates and an equal volume of LDH reaction mixture was added. The samples were incubated at room temperature for 30 min before the reaction was stopped by adding 50 μL of stop solution. The absorbance was then taken at 490 nm and 680 nm using a microplate reader (BMG Labtech, Germany).

HK2 cells [2] = assay: cells; type: cell-based; conditions: HK2 cells on the iBAC, 48 h; for IC50: Homo sapiens, HK-2, apical side, read-out: IC50 (cell viability)
Experimental: as §1, §2

hRPTECs [3] = assay: Active absorption (Papp) through hRPTECs on the iBAC; type: in vitro ADME, human; conditions: for Papp value: hRPTECs on the iBAC, day 4, two hours of dynamic absorption, FITC-albumin (Megalin/Cubilin), ASP+ (OCT2), 5-CF (OAT1)
Experimental: as §1
(§3) After two hours of dynamic absorption, the sample concentrations of FITC-albumin (Ex = 495 nm, Em = 535 nm), ASP+ (Ex = 474 nm, Em = 606 nm) and 5−CF (Ex = 490 nm, Em = 515 nm) were detected by using a microplate reader (BMG Labtech, Germany).
(§4) The Papp was calculated using the equation below:Papp [cm/s] = (1/AC0)(dQ/dt) where A = area of mass transfer, C0 = donor concentration of reagent in the upper medium, and dQ/dt = transmembrane transportation rate.

hRPTECs [4] = assay: Active absorption (Papp) through hRPTECs on the static Transwell; type: in vitro ADME, human; conditions: day 4
Experimental: as §3, §4

HK2 cells [5] = assay: Active absorption (Papp) through HK2 model on the iBAC; type: in vitro ADME, human; conditions: day 4
Experimental: as §1, §3, §4

P-gp [6] = molecular target: T1, P-gp (Homo sapiens, UniProt P08183); assay: in vitro
T1 sequence (P08183 whole entry): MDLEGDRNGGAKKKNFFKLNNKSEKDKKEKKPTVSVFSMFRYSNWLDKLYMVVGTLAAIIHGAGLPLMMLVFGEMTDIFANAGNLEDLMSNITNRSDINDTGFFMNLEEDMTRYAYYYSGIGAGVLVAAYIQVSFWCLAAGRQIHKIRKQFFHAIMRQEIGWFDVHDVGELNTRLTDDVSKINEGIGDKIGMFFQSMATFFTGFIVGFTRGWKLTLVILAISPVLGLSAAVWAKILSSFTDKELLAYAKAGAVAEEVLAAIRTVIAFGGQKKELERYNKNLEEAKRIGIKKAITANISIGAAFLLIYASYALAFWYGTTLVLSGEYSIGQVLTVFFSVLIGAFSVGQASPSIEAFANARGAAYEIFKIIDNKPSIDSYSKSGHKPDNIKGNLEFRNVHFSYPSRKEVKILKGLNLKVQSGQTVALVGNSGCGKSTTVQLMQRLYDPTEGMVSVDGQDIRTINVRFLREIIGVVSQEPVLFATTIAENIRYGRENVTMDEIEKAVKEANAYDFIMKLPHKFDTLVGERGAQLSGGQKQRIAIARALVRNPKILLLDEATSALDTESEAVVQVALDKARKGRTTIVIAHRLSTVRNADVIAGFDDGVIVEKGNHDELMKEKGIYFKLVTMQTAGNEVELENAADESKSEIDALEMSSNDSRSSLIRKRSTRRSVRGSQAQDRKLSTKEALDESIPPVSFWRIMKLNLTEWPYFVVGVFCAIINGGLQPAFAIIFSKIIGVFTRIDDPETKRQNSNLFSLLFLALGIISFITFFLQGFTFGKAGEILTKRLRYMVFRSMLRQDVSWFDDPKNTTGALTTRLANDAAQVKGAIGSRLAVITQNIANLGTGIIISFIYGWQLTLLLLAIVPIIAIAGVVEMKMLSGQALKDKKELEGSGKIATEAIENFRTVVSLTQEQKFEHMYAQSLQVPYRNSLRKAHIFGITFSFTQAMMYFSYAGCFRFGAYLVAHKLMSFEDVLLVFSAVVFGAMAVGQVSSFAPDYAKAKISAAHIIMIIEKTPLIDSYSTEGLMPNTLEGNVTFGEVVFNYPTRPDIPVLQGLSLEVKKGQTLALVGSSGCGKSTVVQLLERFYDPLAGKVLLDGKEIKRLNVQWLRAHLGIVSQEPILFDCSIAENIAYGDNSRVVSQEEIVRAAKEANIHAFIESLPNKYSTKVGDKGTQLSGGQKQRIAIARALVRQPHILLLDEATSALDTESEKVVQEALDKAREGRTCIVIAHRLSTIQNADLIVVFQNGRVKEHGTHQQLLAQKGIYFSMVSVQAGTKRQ

P-gp [7] = molecular target: T1, P-gp; assay: P-gp efflux function (rhodamine 123 with or without verapamil), hRPTECs on the iBAC; conditions: hRPTECs model, without inhibitor
P-gp [8] = molecular target: T1, P-gp; assay: P-gp efflux function (rhodamine 123 with or without verapamil), HK2 model on the iBAC; conditions: without inhibitor
hRPTECs [9] = type: cell-based, human; conditions: hRPTECs on the iBAC, 24 h
Experimental: as §1
as §2, with “The viable cells were stained green, while the dead ones were stained red.” left out, “For the LDH assay, 50 μL of medium from each well of the treatment plates was transferred into fresh 96-well plates and an equal volume of LDH reaction mixture was added. The samples were incubated at room temperature for 30 min before the reaction was stopped by adding 50 μL of stop solution.” left out

HK2 cells [10] = assay: LDH release from HK2 cells on the iBAC; type: cell-based, human; conditions: 24 h
Experimental: as §1
as §2, with “The viable cells were stained green, while the dead ones were stained red.” left out, “For the LDH assay, 50 μL of medium from each well of the treatment plates was transferred into fresh 96-well plates and an equal volume of LDH reaction mixture was added. The samples were incubated at room temperature for 30 min before the reaction was stopped by adding 50 μL of stop solution.” left out

BCRP [11] = molecular target: T2, BCRP (Homo sapiens, UniProt Q9UNQ0); assay: BCRP efflux function (DiOC2 with or without Ko143), hRPTECs on the iBAC; type: in vitro ADME
T2 sequence (Q9UNQ0 1-655): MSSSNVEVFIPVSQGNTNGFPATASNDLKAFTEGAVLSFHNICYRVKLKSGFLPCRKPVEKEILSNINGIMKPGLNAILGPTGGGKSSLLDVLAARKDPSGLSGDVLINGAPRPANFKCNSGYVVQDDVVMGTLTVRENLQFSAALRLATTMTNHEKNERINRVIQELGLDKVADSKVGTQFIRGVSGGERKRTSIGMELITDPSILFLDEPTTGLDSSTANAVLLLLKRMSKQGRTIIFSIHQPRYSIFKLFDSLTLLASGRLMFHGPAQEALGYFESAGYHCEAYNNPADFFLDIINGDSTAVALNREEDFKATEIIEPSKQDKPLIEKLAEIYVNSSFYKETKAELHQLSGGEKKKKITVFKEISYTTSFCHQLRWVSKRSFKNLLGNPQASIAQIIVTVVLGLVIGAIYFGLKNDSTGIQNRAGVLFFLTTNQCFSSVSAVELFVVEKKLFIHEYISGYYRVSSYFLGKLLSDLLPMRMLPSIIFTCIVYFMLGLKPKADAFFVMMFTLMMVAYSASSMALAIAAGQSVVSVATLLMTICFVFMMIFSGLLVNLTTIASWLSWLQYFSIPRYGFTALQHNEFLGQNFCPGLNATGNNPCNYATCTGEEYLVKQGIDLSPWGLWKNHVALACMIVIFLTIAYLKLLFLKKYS
Experimental: as §4

BCRP [12] = molecular target: T2, BCRP; assay: BCRP efflux function (DiOC2 with or without Ko143), HK2 model on the iBAC; type: in vitro ADME; conditions: without inhibitor
Experimental: as §4

Compound: polymyxin B
- Toxicity on the apical side (cell viability) (hRPTECs [1]; hRPTECs on the iBAC, apical administration, 48 h): induced toxicity
- Toxicity on the basal side (cell viability) (hRPTECs [1]; hRPTECs on the iBAC, basal administration, 48 h): induced toxicity
- Toxicity on both sides (cell viability) (HK2 cells [2]; apical and basal administration): not toxic

- Papp value (hRPTECs [3]): 0.039 ×10⁻⁶ cm/s
- Papp value (hRPTECs [4]): 0.002 ×10⁻⁶ cm/s
- Papp value (HK2 cells [5]): 0.009 ×10⁻⁶ cm/s
Compound: 5(6)-Carboxyfluorescein [5−CF]

- Papp at 2 h, 2 μM (P-gp [6]): 13 ×10⁻⁶ cm/s
- Cumulative amount of substrate in cells (P-gp [7]): very low
- Cumulative amount of substrate in cells (P-gp [8]): very low
Compound: COC(=O)c1ccccc1-c1c2ccc(=N)cc-2oc2cc(N)ccc12 [rhodamine 123, Rhodamine 123]

- Papp value (hRPTECs [3]): 9.2 ×10⁻⁶ cm/s
- Papp value (HK2 cells [5]): 2.3 ×10⁻⁶ cm/s
Compound: CN(C)c1ccc(/C=C/c2cc[n+](C)cc2)cc1.[I-] [ASP+, 4-Di-1-ASP]
- Papp value, iBAC compared with Transwell (hRPTECs [3]; hRPTECs, day 4): significantly higher than that on the Transwell

Compound: COc1cccc2c1C(=O)c1c(O)c3c(c(O)c1C2=O)C[C@@](O)(C(=O)CO)C[C@@H]3O[C@H]1C[C@H](N)[C@H](O)[C@H](C)O1 [doxorubicin]
- Toxicity on the apical side (cell viability) (hRPTECs [1]): induced toxicity
- Toxicity on the basal side (cell viability) (hRPTECs [1]): only induced nephrotoxicity on the apical side dosing
- IC50 (HK2 cells [2]): 14.2 µM

Compound: CN/C(=N/CCSCc1nc[nH]c1C)NC#N [cimetidine, Cimetidine]
- Relative LDH release with cisplatin in the presence of the cimetidine (hRPTECs [9]): 93%
- Relative LDH release with cisplatin in the presence of the cimetidine (HK2 cells [10]): 109%

Compound: CCN(CC)CCNC(=O)c1c(C)[nH]c(/C=C2\C(=O)Nc3ccc(F)cc32)c1C [sunitinib]
- Toxicity on the apical side (cell viability) (hRPTECs [1]): induced toxicity
- Toxicity on the basal side (cell viability) (hRPTECs [1]): only induced nephrotoxicity on the apical side dosing
- IC50 (HK2 cells [2]): 29 µM

- Cumulative amount of substrate in cells (BCRP [11]; hRPTECs model, without inhibitor): very low
- Papp value of DiOC2 without Ko143 (BCRP [11]; hRPTECs on the iBAC, DiOC2 10 μM): 4.6 ×10⁻⁶ cm/s
- Papp value of DiOC2 with Ko143 (BCRP [11]; hRPTECs on the iBAC, DiOC2 10 μM, Ko143 10 μM): 4.1 ×10⁻⁶ cm/s
- Cumulative amount of substrate in cells (BCRP [12]): very low
Compound: CCN1/C(=C/C=C/c2oc3ccccc3[n+]2CC)Oc2ccccc21.[I-] [DiOC2]
